Test: Dynamic vapor sorption (moisture sorption/desorption)
Format: physicochemical
Settings: for change of solid form post dynamic vapor sorption experiment: after DVS experiment up to 95% RH at 25° C.; for water absorbed (dynamic vapor sorption): up to 95% RH at 25° C.
Description: Moisture sorption/desorption data were collected on a VTI SGA-100 Vapor Sorption Analyzer. NaCl and PVP were used as calibration standards. Samples were not dried prior to analysis. Sorption and desorption data were collected over a range from 5% to 95% RH at 10% RH increments under a nitrogen purge. The equilibrium criterion used for analysis was less than 0.0100% weight change in 5 minutes with a maximum equilibration time of 3 hours. Weight percentages reported in the data section are relative to the total sample mass introduced prior to equilibration at 5% RH as measured on the instrument.

change of solid form post dynamic vapor sorption experiment	water absorbed (dynamic vapor sorption)	SMILES
not have changed forms	about 1.1%	CCCC[C@](C)(CO)Nc1nc(N)nc2cc(F)cnc12 [Compound I Gentisic Acid, (R)-2-((2-amino-7-fluoropyrido[3,2-d]pyrimidin-4-yl)amino)-2-methylhexan-1-ol gentisic acid]
not have changed forms	about 0.68%	CCCC[C@](C)(CO)Nc1nc(N)nc2cc(F)cnc12 [Compound I Hippuric Acid, (R)-2-((2-amino-7-fluoropyrido[3,2-d]pyrimidin-4-yl)amino)-2-methylhexan-1-ol hippuric acid]
not have changed forms	about 1.2%	CCCC[C@](C)(CO)Nc1nc(N)nc2cc(F)cnc12.O=C(O)CCC(=O)O [Compound I Succinic Acid, (R)-2-((2-amino-7-fluoropyrido[3,2-d]pyrimidin-4-yl)amino)-2-methylhexan-1-ol succinic acid]
